Data reported in patent US20220118170A1, “SYSTEMS, APPARATUS, AND METHODS FOR ADMINISTERING A SUBSTANCE” (Massachusetts Institute of Technology, priority 2015, published 2022).

How the values were obtained:
porcine small intestine = assay: Permeability in Side-Bi-Side diffusion cells; assay type: in vitro ADME
Protocol: Side-Bi-Side™ diffusion cells (available from PermeGear, Hellertown, Pa.) with inner diameters of 9 mm were used to determine permeability. Tissue was placed between the two chambers and clamped together with the luminal side facing the donor chamber. Stir bars were added to both the donor and receiver chambers and agitated using the Bell-ennium™ 9-position magnetic stirrer.
The donor solution consisted of 2 μCi/mL 3H-glucose and 2 μCi/mL 14C-labeled inulin. Each donor chamber was filled with 3 mL of this solution and the receiver solution was filled with 3 mL fresh PBS. At 10-minute intervals over the course of one hour,100 μL samples were taken from the receiver chamber and replaced with an equal volume of fresh PBS. Then, 15 mL of Hionic Fluor was added to these samples and analyzed for tritiated decomposition and 14C decomposition. Seven repeats were performed for the Control samples, and 17 for the Treated samples. […]
The only unknown in Equation 3 is the pore size in λ. Therefore, P may be determined experimentally for each permeant to estimate the membrane pore size. […]
where A is the area of the membrane exposed to the permeant, Ci is the concentration of the permeant in the donor chamber, and dQi/dt is the slope of the plot of the permeant quantity in the receiver chamber versus time after the lag-phase. […]

colon tissue = assay: Ex vivo delivery of radiolabeled permeants in Franz diffusion cells, colon; conditions: colonic tissue, ultrasound treatment, on average
Protocol: Solutions of the four compounds at a concentration of 1 mg/mL were prepared with a radiolabel content ranging from about 0.001% to about 2.5% depending on the stock solution's radiolabel content.
GI tissue (e.g., tongue, esophagus, stomach, intestine, and colon tissue) from Yorkshire pigs was procured within 20 minutes of animal euthanization and stored at about 4° C. Drug delivery testing took place within 6 hours of euthanization. Upon delivery, the fresh porcine tissue was washed with PBS and excess fat was carefully dissected away. With the exception of tongue tissue, the full thickness of the tissue was used for testing. The tissue was sectioned into approximately 2 cm-by-2 cm pieces and kept hydrated with PBS. The variability in thickness of tongue tissue prevented mounting of the entire thickness in the diffusion chambers. […]
Low-frequency (e.g., less than 100 kHz) ultrasound was utilized and administered directly to tissue and compared to controls consisting of untreated tissue. Delivery efficacy was assessed by quantifying the delivery of radiolabeled permeants into and through tissue utilizing Franz diffusion cells. […] Unless otherwise noted, delivered quantities represent the total amount of permeant delivered over this area. […]

[1] = Effect of sonication on molecular structure (1H NMR); assay type: physicochemical; conditions: 20 kHz ultrasound at highest intensity, 4 mg/mL in deuterated DMSO
Protocol: Three biological replicates were performed. Unsonicated samples were used as the control. A Varian 500 (1H, 500 MHz) spectrometer was used to record 1H NMR spectra, then processed using Mnova NMR software (available from Mestralab Research, A Coruña, Spain). The 1H NMR spectra were referenced with residual non-deuterated solvent shifts (DMSO-d5=2.5 ppm). All shifts are reported in ppm. Note the disappearance of the volatile internal tetramethylsilane (TMS) standard after ultrasound treatment, which was carried out in an uncapped vial.
Deuterium exchange occurs as labile protons on the analyte exchange with the deuterated solvent in which it is dissolved. Replacement of protons by deuterium results in loss of signal, shown either as a reduction in the integration fractions or disappearance of the peak altogether. Other indications of deuterium exchange include a slight broadening of peak shape, a shift in peak location, and slight change in J coupling values.

[2] = design: species or system Yorkshire pigs; conditions: both, Yorkshire, pig, in vivo
Protocol: Before every experiment, the animal was fasted overnight.
In step 1402, the subject's rectum is cleared, for example, with a tap water enema. In the study, a clean rectum was confirmed by colonoscopy prior to treatment.
In step 1404, a medicated enema is instilled.
In step 1406, ultrasound is applied. In the study, Control and Treatment tests were performed on separate days. For Treatment tests, the ultrasound treatment was applied using a 20 kHz horn for 2 minutes at a 50% duty cycle at an intensity of 7.5 W/cm^2. For Control tests, the ultrasound probe was inserted into the colon, but not turned on (n=16).
In step 1408, the tissue is biopsied for further assessment. Colonic areas treated with ultrasound were biopsied using endoscopic biopsy forceps (available from, e.g., US Endoscopy, Mentor, Ohio) for drug delivery evaluation as well as histological analysis (n=13).
Each point represents one biological replicate (n=16 for Control, n=13 for Treatment).
Tissue was ground and mixed with phosphate buffered saline and precipitated with 10% trichloroacetic acid. The resulting supernatant was extracted with ethyl acetate. This extract was dried with anhydrous sodium sulfate, transferred to a glass tube, and evaporated to dryness under nitrogen. […] Finally, the sample was allowed to cool to room temperature and analyzed by GC/MS. […]

[3] = system: dextran sodium sulfate (DSS)-induced acute colitis; assay: Dextran sodium sulfate-induced murine colitis model, mesalamine enema with radial UMGID; assay type: in vivo, C57BL/6 mice
Text: Therefore, improvement in disease indices in this model as a result of ultrasound treatment would underscore the impact of UMGID. Given the colonic anatomy and the often circumferential nature of colitis involvement, it was hypothesized that radial UMGID would be most beneficial so as to direct the treatment over the largest area of inflamed tissue. […] The two bumps shown have a diameter of 3 mm and enhance radial ultrasound emission. […] Fifteen-week old, female C57BL/6 mice were purchased from Charles River Laboratories (Wilmington, Mass.) for the induction and treatment of dextran sodium sulfate (DSS)-induced colitis. Five animals were utilized per group. […] Each cage (group) was used as it was received and randomly assigned to experimental groups by the researchers performing the work. On day 1, blood was drawn from all mice and an initial weight of each animal was taken. Colitis was induced with 40-50 kDa dextran sulfate sodium salt (DSS) (available from, e.g., Affymetrix Inc., Santa Clara, Calif.). Starting on day 1, a 3% w/w DSS solution was administered in drinking water ad libitum. On days 3 and 5, the drinking solution was replaced with fresh DSS solution. […] The animals were monitored daily for weight, fecal consistency, and for the presence of fecal occult blood using Hemoccult cards (Beckman Coulter, Pasadena, Calif.). Fecal consistency and the presence of blood was scored based on previously published protocols. Specifically, stool consistency was scored as follows: (1) normal pellet-like feces, (2) pellet of stool easily crushed, (3) soft, watery stool with granules present, or (4) diarrhea. […] Animals with negative hemoccult results were scored (1). […] On day 14, a final weight was taken and fecal score assessed. […] Scores were determined according to previously published protocols with slight modification as follows in TABLE 3: Each tissue cross-section present on the microscope slide (n=2-6) was scored individually between 0-4 with a corresponding percentage involvement (rounded to the nearest quartile). […]

blood-glucose = conditions: swine, enema containing 100U insulin with 1-minute 20 kHz ultrasound
Protocol: Both female and male Yorkshire pigs between 45-80 kg in weight were used for one study based on the availability of sex from the vendor. […] Before every experiment, the animal was fasted overnight. Sedation was induced with intramuscular injection of Telazol® tiletamine, 5 mg/kg (available from Zoetis, Inc., Florham, N.J.), xylazine 2 mg/kg, and atropine 0.04 mg/kg. The animal was then intubated and sedation maintained with isoflurane (1-3% inhaled).
In addition to the preparation noted above, a central venous catheter was placed in the femoral vein using the Seldinger technique to allow for frequent blood sampling. […] A real-time readout was achieved using a TRUEtrack® blood glucose meter (available from Nipro Diagnostics Inc., Fort Lauderdale, Fla.). The remaining blood sample was saved in a blood collection tube with sodium fluoride and ethylenediaminetetraacetic acid (EDTA) to minimize further glucose metabolism. All data shown represents the blood-glucose values quantified from the blood collection tubes, which was evaluated in a blinded fashion.
The blood-glucose was monitored for at least 40 minutes, depending on the experiment's effect on blood-glucose. When necessary, hypoglycemia was corrected with intravenous boluses of 50% dextrose (only needed when ultrasound treatment took place). […]

inulin
Permeability (porcine small intestine; tissue not treated with ultrasound): 0.227 ± 0.113 ×10⁻⁶ cm/s
Average permeability (porcine small intestine; ultrasound treated samples, 20 kHz for 2 minutes at 50% duty cycle): 0.49 ± 0.227 ×10⁻⁶ cm/s
Amount in the tissue compared to that in the receiver chamber (colon tissue): 90 fold

Nc1ccc(O)c(C(=O)O)c1 [mesalamine, 5-aminosalicylic acid]
Molecular structure / chemical stability after sonication (1H NMR) [1]: chemical stability
Drug content in tissue biopsies (limit of detection) [2]: < 50 ng/g tissue
Increase in delivery to tissue biopsies using ultrasound compared to tissue not treated [2]: 22.4 fold
Total fecal score on day 14 ([3]; mesalamine enema alone QD): significantly elevated
Total fecal score on day 14 ([3]; mesalamine enema with ultrasound treatment QD): below 4
Total fecal score on day 14 ([3]; mesalamine enema with ultrasound treatment QOD): below 4

insulin aspart
Blood-glucose response (blood-glucose): robust hypoglycemic response
